The source of these data is patent US12679845B2, “Crystal form of triazolopyridine-substituted indazole compound and preparation method therefor” (SHENZHEN OPTIMUM BIOLOGICAL TECHNOLOGY CO., LTD, priority 2021, dated 2026).

Series [1] deals with MMTV transcriptional activity (GR). In words: MMTV_GR transcriptional activation activity assay, luciferase reporter gene in HeLa cells. The class given is cell-based. The source says: Experimental Example 2: In Vitro Assay of Compounds for Activation of MMTV Transcriptional Activity in Luciferase Reporter Gene Screening System
The mouse mammary tumor virus (MMTV) promoter contains specific binding sites that activate GR (GREs). To determine the activity of the compound, a reporter gene (luciferase) was inserted behind the MMTV promoter, and the structure was expressed in a stable manner in the genome of the HeLa cell line. The MMTV promoter was activated using the test compound to induce the luciferase expression, and its activity was detected by luminescence measurements.
The final DMSO experimental concentration was 0.1%.
MMTV_GR Transcriptional Activation Activity Assay
1) Cell inoculation: Fresh cells were inoculated into a 384-well white transparent bottom assay plate at 4×10^3 cells/30 μL/well and incubated in a 37° C., 5% CO2 incubator for 24 hours.
2) Compound preparation: The compound plate was configured before the start of the experiment. […]
4) 30 μL of Bright-Glo fluorescence assay reagent was transferred to the cell plate. […]
6) The fluorescence value was determined using an Envision plate reader. […]
The concentration curve of the test compound was plotted using the graphing software GraphPad Prism5, and the […] value was calculated.
For orientation: In a reporter assay the amount or activity of a reporter protein is the signal.

Series [2] can be described thus: Hygroscopicity study by dynamic vapor sorption (DVS). The class given is physicochemical. The conditions noted are these: 25° C.; for Hygroscopic weight gain (ΔW): 80% RH compared to 0% RH. As to the method: • Instrument model: TA Discovery TGA 5500 thermal gravimetric analyzer • Test method: The sample (2 to 5 mg) is placed in a platinum pot and tested under the protection of 25 mL/min dry nitrogen, and the method is: heating from room temperature to 350° C. at a rate of 10° C./min. Dynamic Vapor Sorption (DVS) Method of the Present Disclosure • Instrument model: SMS (Surface Measurement Systems) dynamic vapor sorption analyzer • Test conditions: The sample (10 to 15 mg) is taken and placed in a DVS sample dish for testing.
The detailed DVS parameters are as follows: • Temperature: 25° C. • Equilibrium: dm/dt=0.002%/min (minimum: 10 min, maximum: 180 min) • Drying: drying for 120 min under 0% RH RH (%) Test Gradient: • 10% (0% RH to 90% RH, 90% RH to 0% RH) • 5% (90% RH to 95% RH, 95% RH to 90% RH) RH (%) • RH (%) test gradient range: 0% to 95%
SMS DVS Advantage dynamic vapor sorption analyzer
10 to 15 mg of the crystal form S of the compound of formula (I) was taken and placed in a DVS sample disk for testing.

A short description of series [3]: In vivo PK study in Lewis female rats. The conditions noted are these: rat, po 0.3 mg/kg, plasma. As to the method: The animals were weighed before administration, and the administration volume was calculated based on the body weight.
Approximately 0.2 mL of whole blood sample was collected at the specified time by jugular venipuncture (or other appropriate blood collection site), and the actual blood collection time was recorded in the experimental record. The acceptable error for the collection time point is ±1 minute within 1 hour after administration, and ±5% of the theoretical time for other time points. All blood samples were immediately transferred to labeled commercial centrifuge tubes containing K2-EDTA. After collection, the blood sample was centrifuged at 4° C., 3200 g for 10 minutes to aspirate the supernatant plasma, which was immediately placed in dry ice and then stored at −60° C. or lower for LC-MS/MS analysis.
The concentration of the test sample in plasma was determined by the LC-MS/MS bioanalytical method.

Series [4] is described as follows: Solid stability test (XRPD) under high temperature, high humidity and strong light. The class given is physicochemical. The source says:
For samples placed under high temperature and high humidity conditions, the vial was sealed with aluminum foil punched with small holes to ensure that the samples could fully contact with the ambient air; for samples placed under strong light conditions, the vial was sealed with a threaded cap. The samples placed under different conditions were sampled and detected (XRPD) on day 5, day 10, and month 3, and the results were compared with the initial results on day 0.

Structures are written as SMILES.

The term EC50 denotes the midpoint of the concentration-response curve. Usually AUC stands for concentration integrated over time. Lower therefore signals low exposure. By Cmax is commonly meant the maximum level reached in the sampled fluid or tissue. As a reminder, the Tmax is the time at which the peak concentration occurs. In general, half-life refers to the time in which the quantity being followed falls by half. High values mean slow decline, low ones rapid decline. Consider `CC(C)[C@H](NC(=O)C(C)(F)F)[C@H](Oc1ccc2c(cnn2-c2ccc3nncn3c2)c1)c1ccccc1` [listing 1 of 2 here], for which the EC50 in series [1] (Homo sapiens, 20 to 24 h, read-out: TA (MMTV transcriptional activation activity) EC50) was 7.72 nM. In series [1] (positive control 1000 nM Dexamethasone), the “TA (MMTV transcriptional activation activity) Effect” value came to 63.86%. Besides, the Classification of hygroscopicity result in series [2] (80% RH) was “slightly hygroscopic”. Moreover, the “Hygroscopic weight gain (ΔW)” value in series [2] (listed as crystal form Q of the compound of formula (I)) was determined as 0.21%. This compound also yielded an AUC in series [3] of 3.15 µM·h. This compound yielded a Cmax in series [3] of 361 nM. Moreover, the Tmax in series [3] worked out at 4.5 h. This compound also gave a half-life in series [3] of 3.57 h. For the same compound, the “Crystal form (XRPD)” value in series [4] (Day 0, initial) is “Crystal form Q”; in series [4] (High humidity (room temperature/relative humidity: 92.5%, open), Day 5) it was “Crystal form Q”; in series [4] (High humidity (room temperature/relative humidity: 92.5%, open), Day 10), “Crystal form Q”; in series [4] (High humidity (room temperature/relative humidity: 92.5%, open), Month 3), “Crystal form Q”; in series [4] (High temperature (60° C., open), Day 5), “Crystal form Q”; in series [4] (High temperature (60° C., open), Day 10) it was “Crystal form Q”. Also, the “Crystal form (XRPD)” value is “Crystal form Q” in series [4] (High temperature (60° C., open), Month 3); “Crystal form Q” in series [4] (Strong light (5000 lx, sealed), Day 5); “Crystal form Q” in series [4] (Strong light (5000 lx, sealed), Day 10); “Crystal form Q” in series [4] (Strong light (5000 lx, sealed), Month 3).

Turning to `CC(C)[C@H](NC(=O)C(C)(F)F)[C@H](Oc1ccc2c(cnn2-c2ccc3nncn3c2)c1)c1ccccc1` [listing 2 of 2 here], in series [2], the “Hygroscopic weight gain (ΔW)” value is given as 0.6%.
